{"source": "the supplement of paper PMC10307832", "test_in_all_cases": "relative viability (nuclei count vs DMSO), 5 days (fraction); higher = more cells survive", "key": {"[1]": {"compound": "O=C(Nc1c[nH]nc1-c1nc2ccc(CN3CCOCC3)cc2[nH]1)NC1CC1 [AT9283] + Cc1nc(NC(=O)N2CCC[C@H]2C(N)=O)sc1-c1ccnc(C(C)(C)C(F)(F)F)c1 [Alpelisib] (partner 2 µM)", "in_short": "(§1)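 Relative viability was taken as the ratio of nuclei in treated wells to nuclei in vehicle wells. Lung cancer cell lines in 1536-well plates received compounds by pin tool one day after seeding, either one drug alone or a fixed anchor-drug dose plus five library-drug doses (not always all listed) in √10 steps. Nuclei were counted on 4× images after 5 days of treatment, and values are medians of duplicate plates.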"}, "[2]": {"compound": "C#Cc1cccc(Nc2ncnc3cc(OCCOC)c(OCCOC)cc23)c1 [Erlotinib] + CC(=O)c1c(C)c2cnc(Nc3ccc(N4CCNCC4)cn3)nc2n(C2CCCC2)c1=O [Palbociclib] (partner 0.5 µM)", "in_short": "as §1"}, "[3]": {"compound": "O=C(Nc1c[nH]nc1-c1nc2ccc(CN3CCOCC3)cc2[nH]1)NC1CC1 [AT9283] + CC(=O)c1c(C)c2cnc(Nc3ccc(N4CCNCC4)cn3)nc2n(C2CCCC2)c1=O [Palbociclib] (partner 0.5 µM)", "in_short": "as §1"}, "[4]": {"compound": "O=C(Nc1c[nH]nc1-c1nc2ccc(CN3CCOCC3)cc2[nH]1)NC1CC1 [AT9283] + CC1(C)CCC(c2ccc(Cl)cc2)=C(CN2CCN(c3ccc(C(=O)NS(=O)(=O)c4ccc(N[C@H](CCN5CCOCC5)CSc5ccccc5)c(S(=O)(=O)C(F)(F)F)c4)cc3)CC2)C1 [Navitoclax] (partner 0.5 µM)", "in_short": "as §1"}, "[5]": {"compound": "C#Cc1cccc(Nc2ncnc3cc(OCCOC)c(OCCOC)cc23)c1 [Erlotinib] + Cc1nc(NC(=O)N2CCC[C@H]2C(N)=O)sc1-c1ccnc(C(C)(C)C(F)(F)F)c1 [Alpelisib] (partner 2 µM)", "in_short": "as §1"}}, "data": [{"cell line": "NCI-H441", "values": [{"measurement": "relative viability", "setting": "[1]; first compound 0.003 µM", "result": 0.717}, {"measurement": "relative viability", "setting": "[1]; first compound 0.03 µM", "result": 0.641}, {"measurement": "relative viability", "setting": "[1]; first compound 0.09487 µM", "result": 0.235}, {"measurement": "relative viability", "setting": "[1]; first compound 0.3 µM", "result": 0.198}, {"measurement": "relative viability", "setting": "[2]; first compound 0.02 µM", "result": 0.196}, {"measurement": "relative viability", "setting": "[2]; first compound 0.2 µM", "result": 0.212}, {"measurement": "relative viability", "setting": "[2]; first compound 0.6325 µM", "result": 0.177}, {"measurement": "relative viability", "setting": "[2]; first compound 2 µM", "result": 0.186}, {"measurement": "relative viability", "setting": "[3]; first compound 0.003 µM", "result": 0.247}, {"measurement": "relative viability", "setting": "[3]; first compound 0.03 µM", "result": 0.236}, {"measurement": "relative viability", "setting": "[3]; first compound 0.09487 µM", "result": 0.205}, {"measurement": "relative viability", "setting": "[3]; first compound 0.3 µM", "result": 0.175}, {"measurement": "relative viability", "setting": "[4]; first compound 0.003 µM", "result": 0.432}, {"measurement": "relative viability", "setting": "[4]; first compound 0.03 µM", "result": 0.433}, {"measurement": "relative viability", "setting": "[4]; first compound 0.09487 µM", "result": 0.255}, {"measurement": "relative viability", "setting": "[4]; first compound 0.3 µM", "result": 0.204}, {"measurement": "relative viability", "setting": "[5]; first compound 0.02 µM", "result": 0.688}, {"measurement": "relative viability", "setting": "[5]; first compound 0.2 µM", "result": 0.655}, {"measurement": "relative viability", "setting": "[5]; first compound 0.6325 µM", "result": 0.743}, {"measurement": "relative viability", "setting": "[5]; first compound 2 µM", "result": 0.466}]}]}
